Experimental data published in patent US6531148B1, “Therapeutic agents” (Takara Shuzo Co., Ltd., priority 1998, dated 2003).
Values after ≈ are worked out from the molar mass of the structure shown.

Experiments:
[1] = system: Bacillus subtilis IFO3021; experiment: Antimicrobial activity test; format: cell-based; conditions: Bacterium 3, 24 hours
Protocol: (§1) The antimicrobial activities of DGE against Escherichia coli W3110 (Bacterium 1), Salmonella typhimurium LT2 (Bacterium 2), Bacillus subtilis IFO3021 (Bacterium 3), Pseudomonas aeruginosa IFO3080 (Bacterium 4) and Streptococcus mutans GS5 (Bacterium 5) were examined as follows.
(§2) The Bacteria 1 to 4 were cultured overnight in L-broth. The cultures were diluted to a concentration of about 2×10^5 cells/180 μl with Sensitive Bouillon medium (Nissui) base on the turbidity. The Bacterium 5 was cultured overnight in Brain Heart Infusion medium. The culture was diluted to a concentration of about 2×10^5 cells/180 μl with Brain Heart Infusion medium based on the turbidity. 180 μl of each bacterial dilution was placed in each well of a 96-well microtiter plate. On the other hand, the respective bacterial dilutions were further diluted and spread onto plates of L-broth or Brain Heart Infusion medium. The plates were incubated at 37° C. overnight. The resulting colonies were counted to determine the stating viable cell numbers.
(§3) A 14.4 mg/ml DGE solution was diluted every 2-folds to prepare serial dilutions. 20 μl each of the dilutions was placed in the well in which the bacterial dilution had been placed. The cells were cultured at 37° C. for 24 hours without shaking. After cultivation, the turbidity of each culture was measured.
(§4) Furthermore, the culture from the well for which the growth of bacterial cells was not observed was spread onto plates. After the plates were incubated at 37° C. overnight, the colony number was counted to determine the viable cell number. […] The minimal growth-inhibitory concentrations and the minimal bacteriocidal concentrations of DGE for the Bacteria 1 to 5 were determined as shown in Table 2.

[2] = system: Pseudomonas aeruginosa IFO3080; experiment: Antimicrobial activity test; format: cell-based; conditions: Bacterium 4, 24 hours
Protocol: as §1, §2, §3, §4

Streptococcus mutans GS5 = experiment: Antimicrobial activity test; format: cell-based; conditions: Bacterium 5, 24 hours
Protocol: as §1, §2, §3, §4

Escherichia coli W3110 = experiment: Antimicrobial activity test; format: cell-based; conditions: Bacterium 1, 24 hours
Protocol: as §1, §2, §3, §4

[3] = system: Salmonella typhimurium LT2; experiment: Antimicrobial activity test; format: cell-based; conditions: Bacterium 2, 24 hours
Protocol: as §1, §2, §3, §4

spleen lymphocytes = experiment: Lymphocyte activation inhibition test; format: cell-based, mouse; conditions: 3H-thymidine uptake
Text: A ddY mouse (female, 7 weeks old, weighing about 25 g) was purchased from Nippon SLC and pre-bred for 1 week before using in experiments. A spleen was taken out from the mouse, finely minced and suspended in RPMI-1640 medium containing 10% fetal bovine serum (HyClone) to obtain a single cell suspension. Adhesive cells adhered to a plastic Petri dish were removed and non-adhesive cells were used as spleen lymphocytes. The spleen lymphocytes were suspended in RPMI 1640 medium containing 10% fetal bovine serum at a concentration of 2×10^6/ml. 200 μl of the suspension was seeded into each well of a 96-well microtiter plate. DGE at a varying concentration was added to each well other than the control well. Furthermore, 5 μg of Con A (Nacalai Tesque) was added to each well. The plate was incubated at 37° C. for two days in the presence of 5% CO2. 37 kBq of ^3H-thymidine (Daiichi Pure Chemicals) was added to each well to pulse-label the cells on the day before the completion of the cultivation. After cultivation, the cells were harvested on a glass filter to measure the radioactivity.

α-glucosidase from yeast = experiment: α-Glucosidase inhibition test (yeast enzyme); format: biochemical; conditions: for Remaining activity: activity without test sample = 100%; for Absorbance (OD 410 nm): without DGE 0.444
Protocol: (1) The activity of inhibiting α-glucosidase of DGE was measured by reacting p-nitrophenyl-α-D-glucopyranoside, a chromogenic substrate for α-glucosidase, with α-glucosidase from yeast and calorimetrically quatifying 4-nitrophnol released by hydrolysis. Briefly, 10 μl of α-glucosidase solution [40 mU/ml, derived from S. cerevisiae, Sigma, dissolved in 10 mM phosphate buffer (pH 7.2 at 37° C.)] and 10 μl of a solution containing a test sample dissolved in 10 mM phosphate buffer (pH 7.2 at 37° C.) were mixed. 80 μl of a 1.5 mg/ml substrate solution [Sigma, dissolved in 10 mM phosphate buffer (pH 7.2 at 37° C.) was added thereto to initiate the reaction. After reacting at 37° C. for 40 minutes, the absorbance at 410 nm was measured (Shimadzu uv2200). The remaining activity therein was calculated defining the activity without the test sample as 100%.

[4] = biological target: T1, α-glucosidase from rat small intestine mucous membrane (Rattus norvegicus, UniProt P23739); experiment: α-Glucosidase inhibition test (crude enzyme from rat small intestine); format: biochemical; conditions: for relative activity: substrate Sucrose, control without DGE = 100%
T1 construct: relative activity; other: substrate Sucrose, DGE 0.2 mM; control without DGE = 100%; relative activity; other: substrate Sucrose, DGE 0.5 mM; other: substrate Sucrose, DGE 1.0 mM; other: substrate Sucrose, DGE 2.0 mM; other: for sucrose, Dixon
Protocol: (2) A crude enzyme preparation of α-glucosidase from rat small intestine mucous membrane [prepared according to the method as described in Arne Dahlqvist, Anal. Biochem., 7:18-25 (1964)] was used to measure the activity of inhibiting α-glucosidase of DGE as follows.
For the enzymatic reaction, 80 μl of a solution of sucrose, maltose, treharose or soluble starch as a substrate in 10 mM phosphate buffer (pH 7.0) buffer at a final concentration of 100 mM (0.5% for soluble starch) was added to 10 μl of a test sample solution appropriately diluted with the same buffer. 10 μl of the crude enzyme solution prepared from rat small intestine was added thereto. The mixture was reacted at 37° C. for 20 minutes.
The enzymatic reaction was assessed by adding 3 ml of a reagent for glucose measurement (Wako Pure Chemical Industries) to the reaction mixture, reacting at 37° C. for 5 minutes and then measuring the absorbance at 505 nm as the glucose content in the mixture.
The inhibitory activity of DGE on the digestion of each substrate by α-glycosidase was measured using DGE at four different concentrations according to the above-mentioned method. The activity of inhibiting α-glycosidase was expressed as a relative activity (%) defining the activity of the control without DGE as 100%.

T1 sequence (P23739 whole entry): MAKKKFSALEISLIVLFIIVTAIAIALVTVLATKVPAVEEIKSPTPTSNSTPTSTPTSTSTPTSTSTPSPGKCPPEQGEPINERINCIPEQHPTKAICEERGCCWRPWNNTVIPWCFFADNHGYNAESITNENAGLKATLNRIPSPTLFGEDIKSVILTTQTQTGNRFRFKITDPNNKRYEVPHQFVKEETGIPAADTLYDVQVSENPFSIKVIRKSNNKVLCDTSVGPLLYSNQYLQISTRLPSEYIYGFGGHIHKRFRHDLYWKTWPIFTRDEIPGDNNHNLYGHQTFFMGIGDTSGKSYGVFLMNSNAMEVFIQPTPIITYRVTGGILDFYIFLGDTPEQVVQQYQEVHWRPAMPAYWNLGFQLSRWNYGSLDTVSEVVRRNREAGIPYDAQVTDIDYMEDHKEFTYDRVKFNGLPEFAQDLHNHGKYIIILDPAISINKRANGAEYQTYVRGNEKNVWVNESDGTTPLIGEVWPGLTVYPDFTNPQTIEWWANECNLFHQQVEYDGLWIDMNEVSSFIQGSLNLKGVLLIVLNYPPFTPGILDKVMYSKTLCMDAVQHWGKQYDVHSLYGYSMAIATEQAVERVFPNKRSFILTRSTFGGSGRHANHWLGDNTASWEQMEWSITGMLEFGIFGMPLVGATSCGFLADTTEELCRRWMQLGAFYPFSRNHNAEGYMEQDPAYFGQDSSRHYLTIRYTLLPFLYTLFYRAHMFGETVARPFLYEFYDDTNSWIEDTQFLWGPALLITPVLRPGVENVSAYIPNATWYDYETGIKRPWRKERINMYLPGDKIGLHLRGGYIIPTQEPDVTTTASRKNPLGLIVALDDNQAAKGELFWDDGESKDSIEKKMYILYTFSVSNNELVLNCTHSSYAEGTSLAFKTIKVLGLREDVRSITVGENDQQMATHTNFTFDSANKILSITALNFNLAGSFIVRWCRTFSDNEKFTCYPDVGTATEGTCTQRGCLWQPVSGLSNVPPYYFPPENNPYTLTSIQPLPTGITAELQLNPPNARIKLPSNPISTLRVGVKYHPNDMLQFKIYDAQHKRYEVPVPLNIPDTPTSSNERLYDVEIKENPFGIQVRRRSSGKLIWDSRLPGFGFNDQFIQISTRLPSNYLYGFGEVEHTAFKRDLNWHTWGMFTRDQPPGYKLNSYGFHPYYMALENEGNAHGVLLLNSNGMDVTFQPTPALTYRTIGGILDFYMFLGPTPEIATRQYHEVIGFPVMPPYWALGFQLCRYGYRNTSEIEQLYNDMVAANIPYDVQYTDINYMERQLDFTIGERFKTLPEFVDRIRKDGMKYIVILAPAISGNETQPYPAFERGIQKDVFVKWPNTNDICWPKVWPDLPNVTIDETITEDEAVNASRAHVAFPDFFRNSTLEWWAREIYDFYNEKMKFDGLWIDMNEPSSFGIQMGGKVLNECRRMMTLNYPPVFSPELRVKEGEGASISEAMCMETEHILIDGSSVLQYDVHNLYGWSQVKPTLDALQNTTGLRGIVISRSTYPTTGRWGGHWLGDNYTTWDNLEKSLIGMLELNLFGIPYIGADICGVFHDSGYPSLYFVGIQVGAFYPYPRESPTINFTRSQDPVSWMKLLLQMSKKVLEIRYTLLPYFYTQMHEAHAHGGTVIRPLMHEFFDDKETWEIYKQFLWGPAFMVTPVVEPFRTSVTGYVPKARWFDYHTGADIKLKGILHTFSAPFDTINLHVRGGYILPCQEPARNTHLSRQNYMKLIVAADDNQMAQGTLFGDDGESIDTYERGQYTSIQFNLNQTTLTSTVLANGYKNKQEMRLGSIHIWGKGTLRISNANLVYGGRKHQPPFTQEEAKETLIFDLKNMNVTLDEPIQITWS

O=C1C=CC(CO)OC1O [DGE, L-glycero-1,5-epoxy-1αβ,6-dihydroxy-cis-hex-3-en-2-one] gave an MIC ([1]; Bacillus subtilis, IFO3021, read-out: Minimal growth-inhibitory concentration) of 360 µg/mL (≈ 2500 µM), a Minimal bacteriocidal concentration [1] of 720 µg/mL and a Minimal bacteriocidal concentration [2] of 720 µg/mL. The MIC ([2]; Pseudomonas aeruginosa, IFO3080, read-out: Minimal growth-inhibitory concentration) was 360 µg/mL (≈ 2500 µM), the Minimal bacteriocidal concentration (Streptococcus mutans GS5) was 180 µg/mL and the MIC (Streptococcus mutans GS5; Streptococcus mutans, GS5, read-out: Minimal growth-inhibitory concentration) was 90 µg/mL (≈ 624 µM). It also gave a Minimal bacteriocidal concentration (Escherichia coli W3110) of 720 µg/mL, an MIC (Escherichia coli W3110; Escherichia coli, W3110, read-out: Minimal growth-inhibitory concentration) of 360 µg/mL (≈ 2500 µM) and a Minimal bacteriocidal concentration [3] of 720 µg/mL. For the same compound, the MIC ([3]; Salmonella enterica, TYPHIMURIUM, read-out: Minimal growth-inhibitory concentration) was 360 µg/mL (≈ 2500 µM), the “inhibitory activity against lymphocyte proliferation activated by stimulation with mitogen” value (spleen lymphocytes; Con A) was “in a dose-dependent manner” and the “concentration that almost completely inhibits the proliferation” value (spleen lymphocytes; Con A-stimulated spleen lymphocytes) was 0.3 µg/mL. The Remaining activity (α-glucosidase from yeast; DGE added 5 μM) was 98%, the “Absorbance (OD 410 nm)” value (α-glucosidase from yeast; DGE added 5 μM) was 0.433 and the Remaining activity (α-glucosidase from yeast; DGE added 50 μM) was 90%. The “Absorbance (OD 410 nm)” value (α-glucosidase from yeast; DGE added 50 μM) was 0.401, the Remaining activity (α-glucosidase from yeast; DGE added 500 μM) was 50% and the “Absorbance (OD 410 nm)” value (α-glucosidase from yeast; DGE added 500 μM) was 0.221. The Remaining activity (α-glucosidase from yeast; DGE added 1000 μM) was 26%, the “Absorbance (OD 410 nm)” value (α-glucosidase from yeast; DGE added 1000 μM) was 0.114 and the Remaining activity (α-glucosidase from yeast; DGE added 5000 μM) was 19%. The “Absorbance (OD 410 nm)” value (α-glucosidase from yeast; DGE added 5000 μM) was 0.083, the IC50 (α-glucosidase from yeast; substrate p-nitrophenyl-α-D-glucopyranoside, read-out: concentration of DGE that inhibits α-glucosidase activity by 50% (IC50)) was 0.5 mM and the “activity of inhibiting α-glycosidase with sucrose as a substrate compared with maltose or the like” value [4] was “exhibited a higher activity of inhibiting α-glycosidase”. For the same compound, the Ki ([4]; for sucrose, Dixon plot, read-out: inhibition constant (Ki)) was 6 mM, the relative activity ([4]; DGE 0.2 mM) was 91% and the relative activity ([4]; DGE 0.5 mM) was 92%. It also gave a relative activity ([4]; DGE 1.0 mM) of 83% and a relative activity ([4]; DGE 2.0 mM) of 71%.
